Reference: US20120202856A1, “SUBSTITUTED BENZIMDAZOLE DERIVATIVES USEFUL AS TRPM8 RECEPTOR MODULATORS” (priority 2011, published 2012)
Values joined by “and” are separate entries in the source; they are usually repeats but may differ in a detail not shown here. Equal values may be shown once. Where a name gives a salt, the structure may show the parent alone.

molecular target: T1, canine TRPM8 (Canis lupus familiaris, UniProt Q1A7N1); assay: In Vitro Canine TRPM8 Functional Assay (intracellular Ca2+ fluorescence, icilin activation, HEK293 cells); type: cell-based; settings: HEK293, 0.2 μM test compound; individually measured values; read-out: % Inh (%) @0.2 μM, in vitro TRP M8 Activity
T1 construct: expressed in transfected cells
Experimental: The changes in fluorescent signal were monitored by a fluorescence plate reader, either a FLIPR™ (Molecular Devices) or FDSS (Hamamatsu). […] Cells were maintained in 5% CO2 at 37° C. At 24 hr prior to assay, cells were seeded in black wall, clear-base poly-D-lysine coated 384-well plates (BD Biosciences, NJ, USA) at a density of 5,000 cells per well in culture medium and grown overnight in 5% CO2 at 37° C. On assay day, growth media was removed, and cells were loaded with Calcium 3 Dye (Molecular Devices) for 35 min at 37° C., under 5% CO2 and then incubated for 25 min at room temperature and atmosphere. Subsequently, cells were tested for agonist-induced increases in intracellular Ca^2+ levels using FLIPR™ or FDSS. […] Maximal fluorescence intensity (FI) achieved upon addition of icilin was exported from the FLIPR™ or FDSS software and further analyzed using GraphPad Prism 3.02 (Graph Pad Software Inc., CA, U.S.A.). Basal FI was subtracted prior to normalizing data to percent of maximal response. Curves were generated using the average of quadruplicate wells for each data point using nonlinear regression of either sigmoidal dose response or sigmoidal dose response (variable slope). Finally, IC50 values were calculated with the best-fit curve determined by GraphPad Prism

T1 sequence (Q1A7N1 1-1104): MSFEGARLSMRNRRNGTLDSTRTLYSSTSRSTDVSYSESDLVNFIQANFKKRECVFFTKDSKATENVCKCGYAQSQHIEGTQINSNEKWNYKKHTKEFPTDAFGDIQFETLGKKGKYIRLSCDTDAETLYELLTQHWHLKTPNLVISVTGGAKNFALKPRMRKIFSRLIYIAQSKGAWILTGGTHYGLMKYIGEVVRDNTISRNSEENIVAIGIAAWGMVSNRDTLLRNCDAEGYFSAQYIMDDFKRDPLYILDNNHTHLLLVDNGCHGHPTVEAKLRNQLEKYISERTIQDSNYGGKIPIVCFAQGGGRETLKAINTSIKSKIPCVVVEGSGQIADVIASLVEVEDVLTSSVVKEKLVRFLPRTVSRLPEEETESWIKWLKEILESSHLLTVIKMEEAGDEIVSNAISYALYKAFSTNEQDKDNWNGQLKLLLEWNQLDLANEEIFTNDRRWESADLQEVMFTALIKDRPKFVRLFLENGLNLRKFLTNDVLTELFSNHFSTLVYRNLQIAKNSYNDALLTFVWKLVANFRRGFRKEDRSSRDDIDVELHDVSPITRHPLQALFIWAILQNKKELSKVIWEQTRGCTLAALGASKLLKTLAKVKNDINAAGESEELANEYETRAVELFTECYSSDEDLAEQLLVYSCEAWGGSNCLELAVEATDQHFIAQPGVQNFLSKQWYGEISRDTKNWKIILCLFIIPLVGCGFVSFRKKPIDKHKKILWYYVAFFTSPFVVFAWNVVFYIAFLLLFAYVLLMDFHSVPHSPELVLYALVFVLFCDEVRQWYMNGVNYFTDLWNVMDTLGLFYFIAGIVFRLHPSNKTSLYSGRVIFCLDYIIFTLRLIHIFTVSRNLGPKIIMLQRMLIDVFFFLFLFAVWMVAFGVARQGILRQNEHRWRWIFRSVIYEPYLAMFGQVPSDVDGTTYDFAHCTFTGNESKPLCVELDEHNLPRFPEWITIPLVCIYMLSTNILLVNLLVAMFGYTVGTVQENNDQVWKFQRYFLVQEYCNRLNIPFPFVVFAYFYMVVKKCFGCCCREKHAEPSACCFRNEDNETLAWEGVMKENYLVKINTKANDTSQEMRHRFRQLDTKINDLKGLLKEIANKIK

SMILES	inhibition at 0.2 µM
Cc1c(C(C)(C)C)nn(C)c1-c1nc2cc(-c3ccccc3Cl)cc(Cl)c2[nH]1 [Compound 134, 2-(5-tert-Butyl-2,4-dimethyl-2H-pyrazol-3-yl)-7-chloro-5-(2-chloro-phenyl)-1H-benzimidazole hydrochloride]	99%
Cc1c(C(C)(C)C)nn(C)c1-c1nc2cc(-c3c(F)cccc3C(F)(F)F)cc(Cl)c2[nH]1 [Compound 137, 2-(5-tert-Butyl-2,4-dimethyl-2H-pyrazol-3-yl)-7-chloro-5-(2-fluoro-6-trifluoromethyl-phenyl)-1H-benzimidazole hydrochloride]	99%
Cc1oc(C(C)(C)C)nc1-c1nc2cc(-c3ccccc3)cc(C(F)(F)F)c2[nH]1 [Compound 157, 2-(2-tert-Butyl-5-methyl-oxazol-4-yl)-5-phenyl-7-trifluoromethyl-1H-benzimidazole hydrochloride]	41%
Cn1nc(C(C)(C)C)c(C(F)(F)F)c1-c1nc2cc(-c3ccccc3C(F)(F)F)cc(C(F)(F)F)c2[nH]1 [Compound 187, 2-(5-tert-Butyl-2-methyl-4-trifluoromethyl-2H-pyrazol-3-yl)-7-trifluoromethyl-5-(2-trifluoromethyl-phenyl)-1H-benzimidazole sodium salt]	100%
Cn1nc2c(c1-c1nc3cc(-c4ccccc4C(F)(F)F)cc(C(F)(F)F)c3[nH]1)CCC21CCCCC1 [Compound 189]	99%
Cn1nc(C(C)(C)C)c(C(F)(F)F)c1-c1nc2cc(-c3ccccc3F)cc(C(F)(F)F)c2[nH]1 [Compound 185, 2-(5-tert-Butyl-2-methyl-4-trifluoromethyl-2H-pyrazol-3-yl)-5-(2-fluoro-phenyl)-7-trifluoromethyl-1H-benzimidazole sodium salt]	99%

The remaining lines, values ahead:

inhibition at 0.2 µM	SMILES
62%	Cc1oc(C(C)(C)C)nc1-c1nc2cc(-c3ccccc3Cl)cc(Cl)c2[nH]1 [Compound 163, 2-(2-tert-Butyl-5-methyl-oxazol-4-yl)-7-chloro-5-(2-chloro-phenyl)-1H-benzimidazole hydrochloride]
39%	Cc1oc(-c2nc3cc(-c4ccccc4Cl)cc(C(F)(F)F)c3[nH]2)nc1C(C)(C)C [Compound 196, 2-(4-tert-Butyl-5-methyl-oxazol-2-yl)-5-(2-chloro-phenyl)-7-trifluoromethyl-1H-benzimidazole hydrochloride]
27%	Cc1oc(C(C)(C)C)nc1-c1nc2cc(-c3ccccc3C(F)(F)F)cc(Cl)c2[nH]1 [Compound 165, 2-(2-tert-Butyl-5-methyl-oxazol-4-yl)-7-chloro-5-(2-trifluoromethyl-phenyl)-1H-benzimidazole hydrochloride]
99%	CC(C)(C)c1cc(-c2nc3cc(-c4ccccc4Cl)cc(C(F)(F)F)c3[nH]2)on1 [Compound 141, 2-(3-tert-Butyl-isoxazol-5-yl)-5-(2-chloro-phenyl)-7-trifluoromethyl-1H-benzimidazole hydrochloride]

same assay, conditions: HEK293 cells expressing canine TRPM8, icilin activation; individually measured values (batches/salt forms); read-out: IC50 (nM), in vitro TRP M8 Activity

SMILES	IC50
Cn1nc(C(F)(F)F)cc1-c1nc2cc(-c3ccccc3OC(F)(F)F)ccc2[nH]1 [Compound 41, 2-(5-Trifluoromethyl-2-methyl-2H-pyrazol-3-yl)-5-(2-trifluoromethoxyphenyl)-1H-benzimidazole sodium salt]	133 nM
COc1cccc(OC)c1-c1ccc2[nH]c(-c3cc(C(C)(C)C)no3)nc2c1 [Compound 63, 2-(3-tert-Butyl-isoxazol-5-yl)-5-(2,6-dimethoxy-phenyl)-1H-benzimidazole trifluoroacetic acid salt]	5.5 nM
Cc1c(C(C)(C)C)nn(C)c1-c1nc2cc(-c3ccccc3Cl)cc(Cl)c2[nH]1 [Compound 134, 2-(5-tert-Butyl-2,4-dimethyl-2H-pyrazol-3-yl)-7-chloro-5-(2-chloro-phenyl)-1H-benzimidazole hydrochloride]	5.6 nM and 10.9 nM
Cc1c(C(C)(C)C)nn(C)c1-c1nc2cc(-c3c(F)cccc3C(F)(F)F)cc(Cl)c2[nH]1 [Compound 137, 2-(5-tert-Butyl-2,4-dimethyl-2H-pyrazol-3-yl)-7-chloro-5-(2-fluoro-6-trifluoromethyl-phenyl)-1H-benzimidazole hydrochloride]	3 nM and 4.7 nM
CC(C)Cc1cc(-c2nc3cc(-c4ccccc4C(F)(F)F)ccc3[nH]2)on1 [Compound 22, 2-(3-Isobutylisoxazol-5-yl)-5-(2-trifluoromethylphenyl)-1H-benzimidazole hydrochloride]	32 nM
Cc1c(C(C)(C)C)nn(C)c1-c1nc2cc(-c3ccccc3F)cc(C(F)(F)F)c2[nH]1 [Compound 118, 2-(5-tert-Butyl-2,4-dimethyl-2H-pyrazol-3-yl)-5-(2-fluoro-phenyl)-7-trifluoromethyl-1H-benzimidazole hydrochloride]	9.6 nM
CC(C)(C)c1cc(-c2nc3cc(-c4ccccc4C#N)ccc3[nH]2)on1 [Compound 69, 2-[2-(3-tert-Butyl-isoxazol-5-yl)-1H-benzimidazol-5-yl]-benzonitrile trifluoroacetic acid salt]	20.5 nM
Cn1nc(C(C)(C)C)c(C(F)(F)F)c1-c1nc2cc(-c3ccccc3C(F)(F)F)cc(C(F)(F)F)c2[nH]1 [Compound 187, 2-(5-tert-Butyl-2-methyl-4-trifluoromethyl-2H-pyrazol-3-yl)-7-trifluoromethyl-5-(2-trifluoromethyl-phenyl)-1H-benzimidazole sodium salt]	14.7 nM
COc1ccccc1-c1ccc2[nH]c(-c3cc(C4CC4)no3)nc2c1 [Compound 15, 2-(3-cyclopropylisoxazol-5-yl)-5-(2-methoxyphenyl)-1H-benzimidazole sodium salt]	70 nM
Cn1nc2c(c1-c1nc3cc(-c4ccccc4C(F)(F)F)cc(C(F)(F)F)c3[nH]1)CCC21CCCCC1 [Compound 189]	10.6 nM
Cn1nc(C(C)(C)C)cc1-c1nc2cc(-c3ccccc3OC(F)(F)F)ccc2[nH]1 [Compound 14, 2-(5-tert-Butyl-2-methyl-2H-pyrazol-3-yl)-5-(2-trifluoromethoxyphenyl)-1H-benzimidazole sodium salt]	44 nM
CCC(CC)c1cc(-c2nc3ccc(-c4ccccc4C(F)(F)F)cc3[nH]2)on1 [Compound 26, 2-[3-(1-Ethylpropyl)-isoxazol-5-yl]-6-(2-trifluoromethylphenyl)-1H-benzimidazole hydrochloride]	39 nM
CCn1nc(C(C)(C)C)cc1-c1nc2cc(-c3ccccc3OC(F)(F)F)ccc2[nH]1 [Compound 45, 2-(5-tert-butyl-2-ethyl-2H-pyrazol-3-yl)-5-(2-trifluoromethoxyphenyl)-1H-benzimidazole sodium salt]	51.2 nM
Cc1c(C(C)(C)C)noc1-c1nc2cc(-c3ccccc3C(F)(F)F)ccc2[nH]1 [Compound 108, 2-(3-tert-Butyl-4-methyl-isoxazol-5-yl)-5-(2-trifluoromethyl-phenyl)-1H-benzimidazole hydrochloride]	10.2 nM
Cc1c(C(C)(C)C)nn(C)c1-c1nc2cc(-c3ccccc3Cl)cc(C(F)(F)F)c2[nH]1 [Compound 121, 2-(5-tert-Butyl-2,4-dimethyl-2H-pyrazol-3-yl)-5-(2-chloro-phenyl)-7-trifluoromethyl-1H-benzimidazole hydrochloride]	3.1 nM
Cn1nc(C(C)(C)C)c(C(F)(F)F)c1-c1nc2cc(-c3ccccc3F)cc(C(F)(F)F)c2[nH]1 [Compound 185, 2-(5-tert-Butyl-2-methyl-4-trifluoromethyl-2H-pyrazol-3-yl)-5-(2-fluoro-phenyl)-7-trifluoromethyl-1H-benzimidazole sodium salt]	13.8 nM

Continued, values first:

IC50	SMILES
30 nM	CC(C)(C)c1nnc(-c2nc3cc(-c4ccccc4C(F)(F)F)cc(C(F)(F)F)c3[nH]2)o1 [Compound 190, 2-(5-tert-Butyl-[1,3,4]oxadiazol-2-yl)-7-trifluoromethyl-5-(2-trifluoromethyl-phenyl)-1H-benzimidazole sodium salt]
16 nM	COc1ccccc1-c1ccc2[nH]c(-c3cc(C(C)C)no3)nc2c1 [Compound 2, 2-(3-Isopropylisoxazol-5-yl)-5-(2-methoxyphenyl)-1H-benzimidazole sodium salt]
145 nM	FC(F)(F)c1ccccc1-c1ccc2[nH]c(-c3cc(Cl)no3)nc2c1 [Compound 33, 2-(3-Chloroisoxazol-5-yl)-5-(2-trifluoromethylphenyl)-1H-benzimidazole sodium salt]
7.5 nM	Cn1nc(C(C)(C)C)nc1-c1nc2cc(-c3ccccc3C(F)(F)F)cc(C(F)(F)F)c2[nH]1 [Compound 192, 2-(5-tert-Butyl-2-methyl-2H-[1,2,4]triazol-3-yl)-7-trifluoromethyl-5-(2-trifluoromethyl-phenyl)-1H-benzimidazole sodium salt]
5.5 nM	Cc1c(C(C)(C)C)nn(C)c1-c1nc2cc(-c3c(F)cccc3F)cc(C(F)(F)F)c2[nH]1 [Compound 122, 2-(5-tert-Butyl-2,4-dimethyl-2H-pyrazol-3-yl)-5-(2,6-difluoro-phenyl)-7-trifluoromethyl-1H-benzimidazole hydrochloride]
49.6 nM	CC(C)n1nc(C(C)(C)C)cc1-c1nc2cc(-c3ccccc3OC(F)(F)F)ccc2[nH]1 [Compound 47, 2-(5-tert-Butyl-2-isopropyl-2H-pyrazol-3-yl)-5-(2-trifluoromethoxyphenyl)-1H-benzimidazole sodium salt]
5.4 nM and 8.7 nM	CC(C)(C)c1cc(-c2nc3cc(-c4ccccc4Cl)cc(C(F)(F)F)c3[nH]2)on1 [Compound 141, 2-(3-tert-Butyl-isoxazol-5-yl)-5-(2-chloro-phenyl)-7-trifluoromethyl-1H-benzimidazole hydrochloride]
5.7 nM and 8.6 nM	Cn1nc(C(C)(C)C)c(Cl)c1-c1nc2cc(-c3c(C(F)(F)F)cccc3C(F)(F)F)ccc2[nH]1 [Compound 87, 5-(2,6-Bis-trifluoromethyl-phenyl)-2-(5-tert-butyl-4-chloro-2-methyl-2H-pyrazol-3-yl)-1H-benzimidazole hydrochloride]
46 nM	CCC(CC)c1cc(-c2nc3ccc(-c4ccccc4OC(F)(F)F)cc3[nH]2)on1 [Compound 27, 2-[3-(1-Ethylpropyl)-isoxazol-5-yl]-6-(2-trifluoromethoxyphenyl)-1H-benzimidazole hydrochloride]
11.9 nM	Cc1c(C(C)(C)C)noc1-c1nc2cc(-c3ccccc3Cl)ccc2[nH]1 [Compound 107, 2-(3-tert-Butyl-4-methyl-isoxazol-5-yl)-5-(2-chloro-phenyl)-1H-benzimidazole hydrochloride]
36 nM	Cn1nc2c(c1-c1nc3cc(-c4ccccc4C(F)(F)F)ccc3[nH]1)CCCC2(C)C [Compound 30, 2,7,7-Trimethyl-3-[5-(2-trifluoromethylphenyl)-1H-benzimidazol-2-yl]-4,5,6,7-tetrahydro-2H-indazole sodium salt]
